As to `Cc1cccc(F)c1`, the lipophilicity (logP) amounted to 2.75. The value for `CC(=O)c1cccc(C)c1` was 2.15; that for `COc1ccc(OC)cc1` was 2.04. The value for `Fc1cccc(F)c1` was 2.21; that for `Fc1ccc(Br)cc1` was 3.08; that for `COc1ccc(F)cc1` was 2.26.

For `Cc1ccc(F)cc1`, the logP turned out to be 2.58.

Regarding `Cc1ccc(Br)cc1`, the lipophilicity (logP) came to 3.42. In the case of `Fc1cccc(Br)c1`, the logP is 2.92. The value for `CC(=O)c1cccc(N)c1` was 0.83. The value for `Clc1ccc(Br)cc1` was 3.54; that for `Clc1cccc(Br)c1` was 3.7.

`Fc1ccc(Cl)cc1` returned a logP of 2.78.

The compound `COc1cccc(F)c1` had a logP of 2.36.

In turn, `CC(=O)c1cccc(Br)c1` gave a log partition coefficient (logP) of 2.47. The value for `Cc1cccc(Br)c1` was 3.41; that for `Fc1ccc(F)cc1` was 2.13. With `COc1ccc(Br)cc1` the figure was 3.05; with `COc1cccc(Br)c1`, 3.03.

As usually defined, the logP is the decadic logarithm of the partition coefficient of the neutral form, usually between octanol and water. Read a low logP as a more hydrophilic compound.

These data come from the OPERA property sets (Mansouri et al. 2018).
